Data set [1] in a line: Hematocrit / hemolytic anemia after IV administration. The following applies: for hematocrit after treatment (drop from 45%): 100 mg/kg IV for longer than a week; for dose at which mild hemolytic anemia can be observed: as low as. An excerpt:
Erythrocytes are sensitive to disruptions in the glycolytic cycle as glycolysis is the cell's only source of energy in the form of ATP.

The nature of data set [2]: Stability in cell culture media by proton-decoupled 31P NMR.
Description: (§4) The stability of Pom-SF2312 in cell culture media (DMEM with 10% fetal bovine serum) was measured by proton-decoupled ^31P NMR on a Brucker 500 MHZ at the M. D. Anderson NMR core (FIG. 14).
(§5) 1.5 mM Pom-Hex and 1.5 mM Pom-SF2312 were dissolved in standard cell culture media (DMEM media containing 10% FBS with the addition of 10% D2O for locking of the NMR signal). Proton-decoupled ^31P NMR scans were taken at repeated intervals. The experiment was performed at room temperature.
The test system of another data set is normal human astrocytes. Nature of the data set: Sensitivity under conventional growth conditions, normal cells. In kind it is cell-based. How it is done: (§1) The inhibitor effects were followed live-cell confluence measurements with the IncuCyte (Essen BioScience) as we described previously (Muller et al., 2012). Growth curves using the IncuCyte were generated by confluence imaging every 2 hours with quadruplicate replicates with and initial seeding of 10^3 cells/well in 96-well plates.
(§2) At the indicated time point (usually 2 weeks), cells were fixed with 10% formalin and stained with 0.1% crystal violet solution for 1 h as described previously (Muller et al., 2012). Dye extraction was performed using 10% acetic acid solution, and absorbance was read at 595 nm.

In data set [3] the test system is ENO1 null glioma cells (D423-MG). The experiment in a line: Growth inhibition by live imaging (Incucyte) / crystal violet. It counts as cell-based, human. The following applies: for IC50: Homo sapiens, D-423MG, 72 h, confluence over 3 days, read-out: approximate IC50 for growth inhibition of ENO1 null glioma cells. The procedure: (§3) Cell proliferation of glioma cell lines was assayed either through crystal violet staining or by live-cell confluence measurements with the IncuCyte (Essen BioScience). Growth curves using the IncuCyte were generated by confluence imaging every 4 hours with duplicate replicates with an initial seeding of 1500 cells/well in 96-well plates. At the indicated time point, cells were fixed with 10% formalin and stained with crystal violet. Dye extraction was performed using 10% acetic acid solution, and absorbance was read at 595 nm. Apoptotic cells were counted by staining with YO-PRO®-1 Iodide (491/509, Life Technologies, Y3603). Apoptotic cells become permeable to YO-PRO®-1 while live cells are not stained. Alternatively, Propidium Iodide was employed (Life Technologies) instead of YO-PRO. Total cell number was quantified by Hoechst 33342 (Cat# H3570 Invitrogen). Cells were seeded as 2×10^3 cells/well in 96-well plates and treated in the presence or absence of doxycycline. On the day of apoptosis survey, old media was removed and each well was filled to 100 μl with fresh media. Hoechst and YO-PRO®-1 were mixed in 1:100 PBS and 10 μl of the mixture was added in each well gently without touching the cells for a final dilution of 1:1000 from stock. Plates were then incubated at 37° C. for 2 hours. Image capture and quantification was done by High Content Screening System—Operetta (Perkin Elmer). ATP content was measured with the luciferase/luciferin CellTiter-Glo® assay. Briefly, 100 μl of CellTiter-Glo® assay media was added to 96-well plates containing 100 μl of media and cells. Lysis was achieved by the […] in the buffer and vigorous pipetting, and luminescence was determined using an Omega Luminescence Plate Reader (BMG Labtech). Results were expressed relative to vehicle treated control.
as §1, §2

Data set [4] relates to cell lines heterozygously deleted for ENO1. Nature of the data set: Sensitivity under conventional growth conditions, ENO1 heterozygous lines. In kind it is cell-based, human. How it is done:
as §1, §2

In data set [5] the test system is D423-MG glioma cells (1p36 deletion spanning ENO1). Nature of the data set: Intracranial D423-MG glioma tumors tracked by T2 MRI. In kind it is in vivo, Nude mice. The following applies: 10 mg/kg intravenous for 11 days. How it is done: Nude mice were injected with D423-MG glioma cells which carry the 1p36 deletion spanning ENO1. Tumors formed around 30 days post injection and growth was tracked non-invasively by T2 MRI. In the absence of treatment, tumors grew continuously, ultimately killing the animal. The tumor area (right side of the brain) is distinguished from the normal mouse brain by high contrast. MRI measurements were performed in a 4.7 T Biospec USR47/40 (Bruker Biospin MRI, Billerica, Mass.) at the M. D. Anderson small animal imaging facility (SAIF). Briefly, animals were maintained under deep anesthesia with isoflurane with body temperature maintained by a heating blanket. Anesthetized mice were restrained with the head held in a stereotactic holder. Breathing was monitored and synchronized with the instrument. Routine tumor detection was done by T2-weighed imaging. First, a low resolution axial scan is taken to center the field properly, after which a series of high resolution axial and coronal scans are recorded.
Nude mice were injected with D423-MG glioma cells which carry the 1p36 deletion spanning ENO1. Tumors formed around 30 days post injection and growth was tracked non-invasively by T2 MRI. In the absence of treatment, tumors grew continuously, ultimately killing the animal. The tumor area (right side of the brain) was distinguished from the normal mouse brain by high contrast. […]

Data set [6] concerns ENO1 deleted Glioblastoma cell line, Gli56. The experiment in a line: Intracranial Gli56 glioblastoma tumors tracked by T2 MRI. In kind it is in vivo, NUDE immunocompromised mice. The following applies: Pom-SF2312 at 4 MPK. An excerpt: Animals (NUDE immunocompromised mice) injected intracranially with the ENO1 deleted Glioblastoma cell line, Gli56. After 30 days, tumors became readily visible by MRI (T2, the white hyperintense regions are tumor on the background grey of the normal brain). In the absence of treatment, Gli56 tumors grow continuously (Mouse #1, and Mouse #3, from Day 30 to Day 40). […] The tumors have not recurred after discontinuation of treatment.

Data set [7] has as its system VHL deleted kidney cancer cell lines RCC4 and 786-O. The experiment in a line: Live growth imaging (Incucyte) of VHL deleted vs VHL rescued kidney cancer cells. In kind it is cell-based, human. How it is done: as §1
VHL is a common event in renal clear cell carcinoma. Deletion of VHL activates the HIF pathway, suppressing respiration and rendering cancer cells highly dependent on glycolysis. As such, efforts have been made to target glycolysis to achieve selective toxicity to VHL deficient kidney cancer. As such, the enolase inhibitor Pom-Hex was tested in VHL deteted kidney cancer cell lines. In two independent VHL deleted kidney cancer cell lines, RCC4 (bottom) and 786-O (top panel), the enolase inhibitor, Pom-Hex, was 4-8 times more toxic to the VHL deleted (upper), compared to isogenic rescued controls, expressing VHL from an ectopic locus (lower panels, italics). As in FIG. 12, growth in response to increasing doses of Pom-Hex was measured by live growth imaging using the Incucyte.

The test system of data set [8] is ENO1 deleted glioma cells in neurospheres. Nature of the data set: Cell viability in 3 dimensional neurosphere conditions (tetramethylrhodamine). In kind it is cell-based, human. How it is done:
The cellular viability studies of 3-dimensional tumospheres was performed by using the vital dye, tetramethylrhomdamine ethyl ester (TMRE). […] For reference, a brightfield picture was also taken.
To more accurately model tumors, glioma cells were grown in 3 dimensional neurosphere conditions. The surface to volume ratio of the neurosphere was considerably smaller than in convention cell culture conditions and as such, compounds with poor cell penetration such as phosphonates have considerably lower efficacy than in conventional cell culture. […] However, under the same conditions, the cell permeable pro-drug, Pom-Hex, was highly toxic to ENO1 deleted glioma cells (FIG. 10B). Cell viability in spheres was monitored using 100 nM of tetramethylrhodamine, which is actively taken up by live but not dead cells.

The target in a further data set is enolase (ENO1 and ENO2). Nature of the data set: Enolase inhibitory activity in vitro, isoform not distinguished (ENO1 and ENO2). It counts as biochemical, human.
The next data set is described as follows: Maximum tolerated dose. More on the design: species or system NUDE immunocompromised mice. To be noted: mouse, in vivo.
Another data set addresses ENO2 (Homo sapiens, UniProt P09104). Nature of the data set: Enolase enzymatic activity and Michaelis-Menten kinetic analysis, ENO2. To be noted: for inhibition kinetics with respect to substrate 2-PGA: SF2312: at IC50.
Data set [9] concerns ATP levels in D423 ENO1-deleted glioma cells. Nature of the data set: ATP content (CellTiter-Glo). The following applies: 8 hours of treatment. It counts as cell-based, human. How it is done:
as §3
In general terms: Cellular ATP, detected with luciferase, serves as a proxy for viable cell number.

For data set [10], the system named is conversion of 13C-glucose to 13C-lactate in D423 ENO1-deleted glioma cells. The experiment in a line: 13C-NMR tracing of uniformly labeled 13C-glucose to 13C-lactate. To be noted: 48 hours, 10 mM 13C-uniformly labeled glucose.
Description: Glucose labeled with heavy, non-radioactive, ^13C at carbon C-1 and ^13C at all carbon atoms were purchased from Cambridge Isotopes (CLM-420-1 and CLM-1396, respectively). Glucose free DMEM media was supplemented with 10 mM ^13C-1 or ^13C-all labeled Glucose. NMR metabolic tracing was performed by substituting conventional DMEM medium with glucose free DMEM medium, to which ^13C-1 glucose (Cambridge Isotopes) was supplemented at 10 mM. […] After 4 days, conditioned media was extracted with 80% methanol at −80° C., lyophilized and resuspended in D2O. Proton-decoupled ^13C NMR spectra were acquired using a 500 MHZ Bruker instrument in the M. D. Anderson NMR core facility.
A further data set addresses human ENO1 (Homo sapiens, UniProt P06733). Nature of the data set: Enolase enzymatic activity, NADH-linked pyruvate kinase/lactate dehydrogenase fluorescence assay, ENO1.
Where [11] appears, read: up to 10 mM, lysates of D423 ENO1 and ENO2 expressing cells.

Entries after “also recorded” stand apart in the source; their conditions may differ. Like-named read-outs stand apart in the source and are kept apart here.

Chain of ENO2 (P09104 whole entry): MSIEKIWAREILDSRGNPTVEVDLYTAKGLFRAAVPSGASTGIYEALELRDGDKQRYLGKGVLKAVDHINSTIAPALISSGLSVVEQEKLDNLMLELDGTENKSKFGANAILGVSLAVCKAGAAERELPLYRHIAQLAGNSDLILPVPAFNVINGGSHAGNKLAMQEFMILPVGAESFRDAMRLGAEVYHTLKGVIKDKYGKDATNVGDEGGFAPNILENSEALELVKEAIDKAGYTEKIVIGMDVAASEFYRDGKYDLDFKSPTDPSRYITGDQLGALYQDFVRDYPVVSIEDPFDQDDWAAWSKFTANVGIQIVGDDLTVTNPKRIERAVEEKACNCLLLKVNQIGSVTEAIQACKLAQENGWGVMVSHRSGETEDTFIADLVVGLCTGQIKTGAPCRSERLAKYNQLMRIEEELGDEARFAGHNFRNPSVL
Chain of human ENO1 (P06733 whole entry): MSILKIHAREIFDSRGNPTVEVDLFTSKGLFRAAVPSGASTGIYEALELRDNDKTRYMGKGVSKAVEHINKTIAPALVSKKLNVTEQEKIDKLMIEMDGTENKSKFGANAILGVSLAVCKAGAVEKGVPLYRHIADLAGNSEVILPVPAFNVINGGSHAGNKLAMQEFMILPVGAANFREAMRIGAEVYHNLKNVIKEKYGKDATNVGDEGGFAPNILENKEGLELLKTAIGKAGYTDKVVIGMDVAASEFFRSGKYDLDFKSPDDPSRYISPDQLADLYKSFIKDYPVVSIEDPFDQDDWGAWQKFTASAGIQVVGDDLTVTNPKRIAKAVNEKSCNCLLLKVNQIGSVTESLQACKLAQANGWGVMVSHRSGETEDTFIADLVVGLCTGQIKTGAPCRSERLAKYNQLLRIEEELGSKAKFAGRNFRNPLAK
Description for enolase (ENO1 and ENO2): (§6) Human ENO1 and ENO2 were overexpressed in the human D423 cell line and used for enzymatic assays. Inhibitors (PhAH, SF2312 and Deoxy-SF2312, Hex, Hepta, Pom-Hex, and Fosmidomycin) were incubated with the enzyme prior to addition of 5 mM 2-PG substrate. Enzymatic activity was measured by monitoring fluorescence of NADH at 340 nm Exitation/460 nm emission using an Lactate dehydrogenase/Pyruvate kinase linked assay which links the formation of PEP to the oxidation of NADH to NAD+, as we have described in published work (Muller et al., 2012). Enzymatic activity was normalized to that in the absence of the inhibitor (set to 1) and plotted as function of inhibitor concentration.
(§7) Enolase activity was measured using two different methods, either by a fluorometric NADH-linked assay or a direct spectrophotometric assay via formation of PEP. In the fluorescent assay, enolase activity was measured via NADH oxidation in a pyruvate kinase-lactate dehydrogenase coupled assay as previously described (Muller, et al., 2012). The assay is conducted in 10 mM KCl, 5 mM MgSO4, 100 mM triethanolamine at pH 7.4, with 400 μM NADH and 2 mM ADP. 2-Phosphoglycerate (2-PGA), pyruvate kinase (PK) and lactate dehydrogenase (LDH) are provided in excess, with conversion of 2-PGA to PEP by enolase being rate limiting. PEP (with ADP) is substrate of PK; pyruvate formed by this reaction is linked to NADH oxidation by LDH. Enolase activity is determined by measuring oxidation of NADH fluorescently by excitation at 340 nm and emission at 460 nm. The substrate concentration, if not otherwise indicated, was 5 mM 2-PGA. Fluorescence was measured using Omega Fluorescence Plate Reader (BMG Labtech). Alternatively, Enolase activity was measured directly by the appearance of PEP from 2-PGA via absorption at 240 nm (Marangos, et al., 1978). The assay medium was the same, except that all the auxiliary reagents (PK/LDH, NADH, ADP) are omitted. Both assays were conducted in a 96-well plated format with the direct assay performed in UV-transmissible plates.
Description for human ENO1: as §6, §7
Description for physchem: as §4, §5

A word on the IC50: it is the midpoint of a concentration-inhibition curve. The term half-life denotes the time needed for the level to fall by half in the phase considered. A higher half-life goes with slow decline. Take `CC(C)(C)C(=O)OCOP(=O)(OCOC(=O)C(C)(C)C)C1CCCN(O)C1=O` (stereo not shown) [Pom-Hex]: the effect on hematocrit entry in data set [1] (doses as high as 10 mg/kg IV for up to 1 month) was “do not cause a statistically significant drop in hematocrit”. Moreover, the “further hydrolysis to the free phosphonate (SF2312, Hex)” value in data set [2] (72 hours of incubation) was “did not proceed further”. For the same compound, the “time for half of the compound to hydrolyze in media” value in data set [2] (DMEM with 10% fetal bovine serum) is “more than 24 hours”. Besides, the “sensitivity of normal human astrocytes” value in the data set with normal human astrocytes was “highly resistant”. The IC50 in data set [3] was ~0.035 µM; against enolase (ENO1 and ENO2) (against ENO1 and ENO2, incubated prior to 5 mM 2-PG, contaminant Hex not ruled out) it was ~100 µM. Further, the “sensitivity of ENO1 deleted D423 glioma cells” value in [3] (conventional growth conditions) is on record as “sensitive to even low nM levels of the inhibitor”. In addition, the “sensitivity of cell lines heterozygously deleted for ENO1” value in data set [4] is recorded as “intermediate sensitivity”. In addition, the “effect on D423-MG intracranial tumor” value in data set [5] is on record as “completely eradicated the tumor”. Moreover, the half-life at 1.5 mM in the data set “physchem” was 36 h. Further, the “effect on Gli56 intracranial tumor growth” value in data set [6] is listed as “profound tumor regression”. The “times more toxic to VHL deleted compared to isogenic rescued controls” value in data set [7] is given as 4-8 times. Further, the “toxicity to ENO1 deleted glioma cells in neurosphere conditions” value in data set [8] is reported as “highly toxic”. Besides, the “fold more potent than Hex” value in data set [8] (FIGS. 10A & 10B, ENO1-deleted glioma cells) was ≥ 200 fold.

On to `CC(C)(C)C(=O)OCOP(=O)(OCOC(=O)C(C)(C)C)C1CC(O)N(O)C1=O` (stereo not shown) [Pom-SF2312, (((1,5-dihydroxy-2-oxopyrrolidin-3-yl)phosphoryl)bis(oxy))bis(methylene)bis(2,2-dimethylpropanoate)], for which the IC50 in data set [3] is < 0.075 µM. In addition, the half-life at 1.5 mM in the data set “physchem” (cell culture media) was 8 h. Also, the maximum tolerated dose in the data set “Maximum tolerated dose” was 4 MPK (mg/kg).

On to `C[C@@H]1O[C@@H]1P(=O)(O)O` [Fosfomycin], for which the enolase inhibitory activity result is “no enolase inhibitory activity” in the data set on enolase (ENO1 and ENO2) (setting [11]); “no inhibitory activity was observed” with enolase (ENO1 and ENO2) (up to 10 mM, lysates of D423 ENO1 and ENO2 expressing cells, listed as fosfomycin).

On to `O=C1C(P(=O)(O)O)CCCN1O` (stereo not shown) [Hex], for which, in data set [1], the “hematocrit after treatment (drop from 45%)” value was 29% and the “dose at which mild hemolytic anemia can be observed” value is listed as 50 mg/kg. The “potency against ENO2 versus ENO1 (IC50 lower / activity greater for ENO2)” value on ENO2 (ENO2 over ENO1) was “approximately 6 fold”. Besides, at ENO2 (Lineweaver-Burke / Dixon plots), the “Ki for ENO2 compared with ENO1” value is given as “considerably lower Ki for ENO2 than ENO1”. The “inhibition kinetics with respect to substrate 2-PGA” value against ENO2 was “competitive inhibitor”. For the same compound, the “toxicity to ENO1 deleted glioma cells in neurosphere conditions” value in data set [8] was “only mildly sensitive”.

With `CC(=O)OC1CC(P(=O)(OCOC(=O)C(C)(C)C)OCOC(=O)C(C)(C)C)C(=O)N1OC(C)=O` (stereo not shown) [Diacetyl-POM-SF2312, (((1,5-diacetoxy-2-oxopyrrolidin-3-yl)phosphoryl)bis(oxy))bis(methylene) bis(2,2-dimethylpropanoate)], in [3], the IC50 was ~0.15 µM.

Consider `O=CN(O)CCCP(=O)(O)O` [Fosmidomycin], for which the enolase inhibitory activity result was “completely inactive” with enolase (ENO1 and ENO2) (even concentrations of >10,000,000 nM); “no enolase inhibitory activity; also recorded: no inhibitory activity was observed” in the data set on enolase (ENO1 and ENO2) (setting [11]).

In the case of `O=C(CP(=O)(O)O)NO` [PhAH, phosphonoacetohydroxamate], in data set [1], the “hematocrit after treatment (drop from 45%)” value is on record as 29% and the “dose at which mild hemolytic anemia can be observed” value was found to be 50 mg/kg. Moreover, in data set [9], the “concentration reducing ATP levels by >40%” value is > 100 µM. Besides, in data set [10], the “concentration sufficient to decrease the ratio of 13C Lactate/13C glucose by 70%” value came to 50 µM. In addition, the IC50 against ENO2 is ~0.02 µM. Also, the half-inhibitory concentration (IC50) against human ENO1 is ~0.02 µM.

Regarding `CC(C)(C)C(=O)OCOP(=O)(O)C1CC(O)N(O)C1=O` (stereo not shown) [Hemi-Pom-SF2312], the “hydrolysis to SF2312 in media” value in data set [2] (within 24 hours) is “did not appreciably hydrolyze”.

In the case of `O=C1C(P(=O)(O)O)CCN1O` (stereo not shown) [Deoxy-SF2312], at ENO2, the IC50 is ~2 µM and the “inhibition kinetics with respect to substrate 2-PGA” value was “clear competitive kinetics”. For the same compound, the half-inhibitory concentration (IC50) against human ENO1 is ~2 µM.

For the compound `O=C(O)P(=O)(O)O` [Foscarnet], the enolase inhibitory activity entry is recorded as “no enolase inhibitory activity” in the data set with enolase (ENO1 and ENO2) (setting [11]); “no inhibitory activity was observed” in the data set with enolase (ENO1 and ENO2) (up to 10 mM, lysates of D423 ENO1 and ENO2 expressing cells, listed as foscanet).
